Assay results reported in ChEMBL document CHEMBL3885861, “Open TG-GATES”.

Species: Rattus norvegicus
Test: Open TG-GATES - Regimen: Daily Repeat
Format: toxicity, organism-based, Sprague-Dawley
Design: regimen Daily Repeat, gender Male, age 6 weeks
Settings: in vivo, po, 30 mg/kg, route gavage, dose level Low; for APTT / Bas / Eos / Fbg / Hb / Ht / Lym / MCH / MCHC / MCV / Mono / Neu / PT / Plat / RBC / Ret / WBC: tissue Blood; for KIDNEY_L / KIDNEY_R / KIDNEY_TOTAL: tissue Kidney; for LIVER: tissue Liver; for ALP / ALT / AST / BUN / CRE / DBIL / GLC / IP / K / LDH / Na / PL / RALB / TBIL / TC / TG / TP / gamma-GTP: tissue Plasma

Structure (SMILES): Clc1ccccc1CN1CCc2sccc2C1 [TICLOPIDINE]
- TERMINAL_BW (72 h, time 3 day): 232 g
- APTT (72 h, time 3 day): 19.7 s
- Bas (72 h, time 3 day): 0.6%
- Eos (72 h, time 3 day): 1%
- Fbg (72 h, time 3 day): 223.6 mg/dL
- Hb (72 h, time 3 day): 13.6 g/dL
- Ht (72 h, time 3 day): 38.5%
- Lym (72 h, time 3 day): 74.2%
- MCH (72 h, time 3 day): 21.5 pg
- MCHC (72 h, time 3 day): 35.2%
- MCV (72 h, time 3 day): 61.1 fL
- Mono (72 h, time 3 day): 3%
- Neu (72 h, time 3 day): 20.2%
- PT (72 h, time 3 day): 11.6 s
- Plat (72 h, time 3 day): 129 x10_4/uL
- RBC (72 h, time 3 day): 631.6 x10_4/ul
- Ret (72 h, time 3 day): 6.2%
- WBC (72 h, time 3 day): 88 x10_2/uL
- KIDNEY_L (72 h, time 3 day): 1 g
- KIDNEY_R (72 h, time 3 day): 1 g
- KIDNEY_TOTAL (72 h, time 3 day): 2 g
- LIVER (72 h, time 3 day): 11.3 g
- ALP (72 h, time 3 day): 1106 IU/L
- ALT (72 h, time 3 day): 36.4 IU/L
- AST (72 h, time 3 day): 67.8 IU/L
- BUN (72 h, time 3 day): 14.8 mg/dL
- CRE (72 h, time 3 day): 0.4 mg/dL
- DBIL (72 h, time 3 day): 0.072 mg/dL
- GLC (72 h, time 3 day): 212 mg/dL
- IP (72 h, time 3 day): 7.5 mg/dL
- K (72 h, time 3 day): 4.1 meq/L
- LDH (72 h, time 3 day): 163.6 IU/L
- Na (72 h, time 3 day): 142 meq/L
- PL (72 h, time 3 day): 155.8 mg/dL
- RALB (72 h, time 3 day): 3.4 g/dL
- TBIL (72 h, time 3 day): 0.1 mg/dL
- TC (72 h, time 3 day): 75.4 mg/dL
- TG (72 h, time 3 day): 100.8 mg/dL
- TP (72 h, time 3 day): 5.6 g/dL
- gamma-GTP (72 h, time 3 day): 1 IU/L
- TERMINAL_BW ([…], time 7 day): 262.3 g
- TERMINAL_BW ([…], time 14 day): 314 g
- TERMINAL_BW ([…], time 28 day): 386.1 g
- APTT ([…], time 7 day): 18.1 s
- Bas ([…], time 7 day): 0.8%
- Eos ([…], time 7 day): 1%
- Fbg ([…], time 7 day): 231.2 mg/dL
- Hb ([…], time 7 day): 14.1 g/dL
- Ht ([…], time 7 day): 39.3%
- Lym ([…], time 7 day): 76%
- MCH ([…], time 7 day): 21.3 pg
- MCHC ([…], time 7 day): 35.7%
- MCV ([…], time 7 day): 59.7 fL
- Mono ([…], time 7 day): 3.2%
- Neu ([…], time 7 day): 18.2%
- PT ([…], time 7 day): 11.2 s
- Plat ([…], time 7 day): 117.8 x10_4/uL
- RBC ([…], time 7 day): 658.6 x10_4/ul
- Ret ([…], time 7 day): 5.8%
- WBC ([…], time 7 day): 104.1 x10_2/uL
- APTT ([…], time 14 day): 21.4 s
- Bas ([…], time 14 day): 0.8%
- Eos ([…], time 14 day): 0.8%
- Fbg ([…], time 14 day): 221.2 mg/dL
- Hb ([…], time 14 day): 14.1 g/dL
- Ht ([…], time 14 day): 39.2%
- Lym ([…], time 14 day): 78.6%
- MCH ([…], time 14 day): 21.2 pg
- MCHC ([…], time 14 day): 36.1%
- MCV ([…], time 14 day): 58.7 fL
- Mono ([…], time 14 day): 2.6%
- Neu ([…], time 14 day): 16.8%
- PT ([…], time 14 day): 11.6 s
- Plat ([…], time 14 day): 116.9 x10_4/uL
- RBC ([…], time 14 day): 668.2 x10_4/ul
- Ret ([…], time 14 day): 4.7%
- WBC ([…], time 14 day): 124.8 x10_2/uL
- APTT ([…], time 28 day): 18 s
- Bas ([…], time 28 day): 0.6%
- Eos ([…], time 28 day): 1.2%
- Fbg ([…], time 28 day): 223.6 mg/dL
- Hb ([…], time 28 day): 14.9 g/dL
- Ht ([…], time 28 day): 40.4%
- Lym ([…], time 28 day): 82%
- MCH ([…], time 28 day): 19.9 pg
- MCHC ([…], time 28 day): 37%
- MCV ([…], time 28 day): 53.7 fL
- Mono ([…], time 28 day): 2%
- Neu ([…], time 28 day): 13.8%
- PT ([…], time 28 day): 11.7 s
- Plat ([…], time 28 day): 106 x10_4/uL
- RBC ([…], time 28 day): 752.8 x10_4/ul
- Ret ([…], time 28 day): 2.9%
- WBC ([…], time 28 day): 115.9 x10_2/uL
- KIDNEY_L ([…], time 7 day): 1.1 g
- KIDNEY_R ([…], time 7 day): 1.1 g
- KIDNEY_TOTAL ([…], time 7 day): 2.2 g
- KIDNEY_L ([…], time 14 day): 1.3 g
- KIDNEY_R ([…], time 14 day): 1.2 g
- KIDNEY_TOTAL ([…], time 14 day): 2.5 g
- KIDNEY_L ([…], time 28 day): 1.3 g
- KIDNEY_R ([…], time 28 day): 1.3 g
- KIDNEY_TOTAL ([…], time 28 day): 2.7 g
- LIVER ([…], time 7 day): 12.2 g
- LIVER ([…], time 14 day): 14.3 g
- LIVER ([…], time 28 day): 15.6 g
- ALP ([…], time 7 day): 861.2 IU/L
- ALT ([…], time 7 day): 38.4 IU/L
- AST ([…], time 7 day): 71.8 IU/L
- BUN ([…], time 7 day): 15.4 mg/dL
- CRE ([…], time 7 day): 0.4 mg/dL
- DBIL ([…], time 7 day): 0.068 mg/dL
- GLC ([…], time 7 day): 204.4 mg/dL
- IP ([…], time 7 day): 7.6 mg/dL
- K ([…], time 7 day): 3.9 meq/L
- LDH ([…], time 7 day): 167.6 IU/L
- Na ([…], time 7 day): 142.4 meq/L
- PL ([…], time 7 day): 150.8 mg/dL
- RALB ([…], time 7 day): 3.5 g/dL
- TBIL ([…], time 7 day): 0.1 mg/dL
- TC ([…], time 7 day): 78.4 mg/dL
- TP ([…], time 7 day): 5.7 g/dL
- gamma-GTP ([…], time 7 day): 1 IU/L
- ALP ([…], time 14 day): 887.6 IU/L
- ALT ([…], time 14 day): 36.4 IU/L
- AST ([…], time 14 day): 68.8 IU/L
- BUN ([…], time 14 day): 16.8 mg/dL
- CRE ([…], time 14 day): 0.4 mg/dL
- DBIL ([…], time 14 day): 0.058 mg/dL
- GLC ([…], time 14 day): 225.4 mg/dL
- IP ([…], time 14 day): 7.7 mg/dL
- K ([…], time 14 day): 4.2 meq/L
- LDH ([…], time 14 day): 174.2 IU/L
- Na ([…], time 14 day): 142.2 meq/L
- PL ([…], time 14 day): 154.8 mg/dL
- RALB ([…], time 14 day): 3.3 g/dL
- TBIL ([…], time 14 day): 0.1 mg/dL
- TC ([…], time 14 day): 74.4 mg/dL
- TG ([…], time 14 day): 120.6 mg/dL
- TP ([…], time 14 day): 5.7 g/dL
- gamma-GTP ([…], time 14 day): 1 IU/L
- ALP ([…], time 28 day): 647.4 IU/L
- ALT ([…], time 28 day): 37 IU/L
- AST ([…], time 28 day): 64.2 IU/L
- BUN ([…], time 28 day): 15.8 mg/dL
- CRE ([…], time 28 day): 0.5 mg/dL
- DBIL ([…], time 28 day): 0.07 mg/dL
- GLC ([…], time 28 day): 200.8 mg/dL
- IP ([…], time 28 day): 7.2 mg/dL
- K ([…], time 28 day): 3.8 meq/L
- LDH ([…], time 28 day): 145 IU/L
- Na ([…], time 28 day): 142 meq/L
- PL ([…], time 28 day): 158.4 mg/dL
- RALB ([…], time 28 day): 3.5 g/dL
- TBIL ([…], time 28 day): 0.1 mg/dL
- TC ([…], time 28 day): 78.4 mg/dL
- TG ([…], time 28 day): 133.8 mg/dL
- TP ([…], time 28 day): 5.8 g/dL
- gamma-GTP ([…], time 28 day): 1 IU/L
